Tests used:
Assay type in all cases: biochemical
CaMKK2 (h) = biological target: T1, CaMKK2 (h) (Homo sapiens, UniProt Q96RR4); test: CAMKK2 kinase activity assay (DiscoverX/Eurofins, radiometric [gamma-33P]-ATP); details: ATP concentration of 10 µM
T1 construct: purchased DiscoverX/Eurofins
Method: The assay is available as a product of DiscoverX/Eurofins. CaMKK2 (h) was incubated with 20 mM Tris/HCl pH 8.5, 0.2 mM EDTA, 0.5% BSA, 0.5 mM CaCl2, 0.016 mg/mL calmodulin, 150 µM […], 10 mM MgAcetate and [gamma-33P]-ATP (specific activity and concentration of 10 µM). The reaction was initiated by the addition of the Mg/ATP mix. After incubation for 40 min 13 at room temperature, the reaction was stopped by the addition of phosphoric acid to a concentration of 0.5%. An aliquot of the reaction was then spotted onto a filter and washed four times for 4 min in 0.425% phosphoric acid and once in methanol prior to drying and scintillation counting.

ATM (h) = biological target: T2, ATM (h) (Homo sapiens, UniProt Q13315); test: ATM kinase activity assay (DiscoverX/Eurofins, HTRF); details: ATP 10 µM; for remaining activity at 10 µM: compound at 10 μM, read-out: ATM residual activity at 10μM
T2 construct: purchased DiscoverX/Eurofins
T2 sequence (Q13315 whole entry): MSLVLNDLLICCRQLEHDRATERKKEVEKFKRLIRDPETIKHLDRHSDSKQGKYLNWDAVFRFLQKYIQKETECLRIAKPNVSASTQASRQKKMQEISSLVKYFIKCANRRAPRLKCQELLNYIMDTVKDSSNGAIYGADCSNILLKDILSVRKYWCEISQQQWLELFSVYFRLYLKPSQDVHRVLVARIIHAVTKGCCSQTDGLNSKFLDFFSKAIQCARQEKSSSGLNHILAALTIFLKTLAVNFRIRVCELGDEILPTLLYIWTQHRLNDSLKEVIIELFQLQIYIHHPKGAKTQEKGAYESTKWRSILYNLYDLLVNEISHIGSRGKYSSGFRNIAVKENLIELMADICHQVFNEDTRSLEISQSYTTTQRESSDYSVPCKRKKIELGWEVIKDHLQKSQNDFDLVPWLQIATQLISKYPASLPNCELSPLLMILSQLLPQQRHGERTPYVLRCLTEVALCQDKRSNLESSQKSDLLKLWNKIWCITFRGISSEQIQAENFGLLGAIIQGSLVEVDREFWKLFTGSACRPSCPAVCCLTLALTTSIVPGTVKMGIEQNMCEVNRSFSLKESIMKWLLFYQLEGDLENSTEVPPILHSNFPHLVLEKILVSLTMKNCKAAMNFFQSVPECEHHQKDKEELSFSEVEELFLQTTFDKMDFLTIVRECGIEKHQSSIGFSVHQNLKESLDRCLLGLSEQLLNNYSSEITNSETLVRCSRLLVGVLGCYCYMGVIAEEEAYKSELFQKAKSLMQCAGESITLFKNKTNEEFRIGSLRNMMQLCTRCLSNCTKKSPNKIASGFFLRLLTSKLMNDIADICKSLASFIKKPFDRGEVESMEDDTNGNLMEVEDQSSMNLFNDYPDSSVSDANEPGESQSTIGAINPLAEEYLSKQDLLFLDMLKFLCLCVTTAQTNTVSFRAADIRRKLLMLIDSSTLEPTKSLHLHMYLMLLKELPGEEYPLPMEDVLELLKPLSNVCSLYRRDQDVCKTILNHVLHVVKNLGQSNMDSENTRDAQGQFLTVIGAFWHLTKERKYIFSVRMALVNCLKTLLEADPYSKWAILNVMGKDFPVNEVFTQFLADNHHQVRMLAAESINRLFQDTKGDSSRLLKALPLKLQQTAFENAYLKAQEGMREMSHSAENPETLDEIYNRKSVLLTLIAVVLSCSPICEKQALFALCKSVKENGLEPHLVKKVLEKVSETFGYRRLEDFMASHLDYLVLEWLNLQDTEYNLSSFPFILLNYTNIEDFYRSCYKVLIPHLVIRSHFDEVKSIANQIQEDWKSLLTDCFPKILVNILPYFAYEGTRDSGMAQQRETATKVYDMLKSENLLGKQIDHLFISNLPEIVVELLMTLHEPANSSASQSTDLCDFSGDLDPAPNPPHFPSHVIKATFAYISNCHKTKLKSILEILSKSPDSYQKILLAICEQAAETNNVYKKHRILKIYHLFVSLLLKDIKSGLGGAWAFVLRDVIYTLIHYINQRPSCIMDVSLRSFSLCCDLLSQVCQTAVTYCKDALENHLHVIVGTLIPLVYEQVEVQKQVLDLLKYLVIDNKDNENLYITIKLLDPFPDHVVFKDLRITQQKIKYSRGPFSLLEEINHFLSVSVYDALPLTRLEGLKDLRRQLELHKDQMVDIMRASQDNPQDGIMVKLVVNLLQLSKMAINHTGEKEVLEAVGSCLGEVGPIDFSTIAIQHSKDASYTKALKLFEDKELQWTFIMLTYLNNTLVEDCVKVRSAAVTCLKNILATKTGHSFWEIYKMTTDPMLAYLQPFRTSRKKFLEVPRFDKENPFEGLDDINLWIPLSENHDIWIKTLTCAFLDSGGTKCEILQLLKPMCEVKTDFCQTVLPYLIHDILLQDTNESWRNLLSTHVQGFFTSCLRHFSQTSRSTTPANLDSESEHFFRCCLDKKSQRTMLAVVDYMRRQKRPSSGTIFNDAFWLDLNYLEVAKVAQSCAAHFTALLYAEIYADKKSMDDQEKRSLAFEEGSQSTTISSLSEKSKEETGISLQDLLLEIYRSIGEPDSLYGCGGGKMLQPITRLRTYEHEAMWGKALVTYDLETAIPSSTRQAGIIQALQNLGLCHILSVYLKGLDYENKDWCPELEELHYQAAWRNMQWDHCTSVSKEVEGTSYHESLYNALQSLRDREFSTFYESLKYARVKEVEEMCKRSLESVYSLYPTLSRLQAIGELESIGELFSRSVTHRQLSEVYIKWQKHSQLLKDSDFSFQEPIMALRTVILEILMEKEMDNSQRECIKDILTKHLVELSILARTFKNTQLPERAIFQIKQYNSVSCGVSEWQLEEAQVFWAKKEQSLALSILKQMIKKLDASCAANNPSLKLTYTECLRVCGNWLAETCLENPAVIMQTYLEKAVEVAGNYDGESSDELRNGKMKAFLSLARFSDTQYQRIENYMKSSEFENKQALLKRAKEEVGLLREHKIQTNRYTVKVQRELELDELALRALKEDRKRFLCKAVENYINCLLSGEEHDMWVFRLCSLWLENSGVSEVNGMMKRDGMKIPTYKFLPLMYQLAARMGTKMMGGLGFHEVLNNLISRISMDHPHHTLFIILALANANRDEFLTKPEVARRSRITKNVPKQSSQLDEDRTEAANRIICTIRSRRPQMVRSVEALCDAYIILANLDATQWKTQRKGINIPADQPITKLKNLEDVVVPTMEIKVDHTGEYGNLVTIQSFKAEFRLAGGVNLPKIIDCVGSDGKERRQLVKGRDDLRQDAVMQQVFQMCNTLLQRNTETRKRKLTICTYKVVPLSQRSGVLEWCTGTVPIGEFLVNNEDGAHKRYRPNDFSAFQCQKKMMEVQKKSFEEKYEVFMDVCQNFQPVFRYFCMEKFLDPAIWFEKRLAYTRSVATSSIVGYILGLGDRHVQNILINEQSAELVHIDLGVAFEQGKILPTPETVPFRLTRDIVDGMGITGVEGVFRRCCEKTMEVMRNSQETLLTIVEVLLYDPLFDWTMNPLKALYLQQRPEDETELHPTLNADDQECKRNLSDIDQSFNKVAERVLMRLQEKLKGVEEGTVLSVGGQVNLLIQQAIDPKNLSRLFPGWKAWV
Method: (§1) The assay is available as a product of DiscoverX/Eurofins. ATM (h) was incubated in assay buffer containing 30 nM GST-cMyc-p53 and Mg/ATP (concentration of 10 µM). The reaction is initiated by the addition of the Mg/ATP mix. After incubation for 30 min at room temperature, the reaction was stopped by the addition of stop solution containing EDTA. Finally, detection buffer was added, which contained a d2-labelled anti-GST monoclonal antibody and a europium-labelled anti-phospho Ser15 antibody against phosphorylated p53. The plate was then read in time-resolved fluorescence mode, and the homogeneous time-resolved fluorescence (HTRF) signal is determined according to the formula HTRF = 10000 x (Em665 nm/Em620 nm).

ATR/ATRIP (h) = biological target: T3, ATR/ATRIP (h) (Homo sapiens, UniProt Q13535); test: ATR kinase activity assay (DiscoverX/Eurofins, HTRF); details: ATP 10 µM
T3 construct: purchased DiscoverX/Eurofins
Method: as §1, with “DiscoverX/Eurofins. ATR/ATRIP” for “DiscoverX/Eurofins. ATM”, “containing 50” for “containing 30”, “reaction was” for “reaction is”, “plate is” for “plate was”, “signal was” for “signal is”, “= 10,000 ×” for “= 10000 x”

DNA-PK (h) = biological target: T4, DNA-PK (h) (Homo sapiens, UniProt P78527); test: DNA-PK kinase activity assay (DiscoverX/Eurofins, HTRF); details: ATP 10 µM
T4 construct: purchased DiscoverX/Eurofins
Method: as §1, with “DiscoverX/Eurofins. DNA-PK” for “DiscoverX/Eurofins. ATM”, “containing 50” for “containing 30”, “plate is” for “plate was”, “= 10,000 ×” for “= 10000 x”

Compound	IC50 (CaMKK2 (h)) [µM]	hill slope (CAMKK2 dose-response) (CaMKK2 (h))	remaining activity at 10 µM (ATM (h)) [%]	other results
CC(=O)c1ccc(-c2cnn3ccc(C(N)=O)nc23)cc1 [QFASG-2]	3	−0.85	–	–
CNC(=O)Nc1ccc(-c2ccn3ncc(-c4c[nH]c(C#N)n4)c3n2)cc1 [QFASG-3]	6	−1.05	–	–
Cc1cc(N(C)c2ccc3ncc(NCC(=O)O)cc3c2)n(C2CC2)n1 [QFASG-4]	–	–	98	–
Cn1cc(-c2ccc3ncc(NC(=O)Nc4cccc(F)c4F)cc3c2)cn1 [QFASG-5]	–	–	71	–

The next lines start with results.

IC50 (CaMKK2 (h)) [µM]	hill slope (CAMKK2 dose-response) (CaMKK2 (h))	remaining activity at 10 µM (ATM (h)) [%]	Compound	other results
> 10	–	–	CC(=O)c1cn(-c2ccn3ncc(-c4cccc(C(=O)C5CNC5)c4)c3n2)cn1 [QFASG-1]	–
–	–	31	N#Cc1ccc2ncc(NC(=O)Nc3cccnc3)cc2c1 [QFASG-6, 1-(6-cyanoquinolin-3-yl)-3-(pyridin-3-yl) urea]	ATR inhibition (in words) (ATR/ATRIP (h)): no ATR inhibition was observed; IC50 (ATR/ATRIP (h)): > 10 µM; IC50 (DNA-PK (h)): 8 µM; hill slope (DNA-PK dose-response) (DNA-PK (h)): −0.85; IC50 (ATM (h)): 4 µM; hill slope (ATM dose-response) (ATM (h)): −1.1

Source: PMC11021760, “Quantum-assisted fragment-based automated structure generator (QFASG) for small molecule design: an in vitro study” (Frontiers in Chemistry, 2024)
